Experimental data from patent publication US9447026B2, “Bicyclic analgesic compounds” (KALYRA PHARMACEUTICALS, INC., priority 2013, dated 2016).

What was measured:
[1] = system: pooled human liver microsomes; assay: Glutathione Conjugation Assay; type: in vitro ADME; settings: 100 μM test compound, 1 mM glutathione, NADPH, 60 mins at 37° C.
Description: An incubation mixture consisting of 5 μL of 10 mM test compound in DMSO (5 μL of DMSO for negative control; 5 μL of 10 mM acetaminophen in DMSO for positive control), 5 μL of 0.1 M glutathione 25 mM EDTA in water, 50 μL of 100 mM MgCl2 in water, 50 μL of 20 mg/mL pooled human liver microsomes (P-450 content: ˜0.5 nmol/mg protein), and 340 μL of 100 mM potassium phosphate buffer (pH 7.4) was preincubated at 37° C. for 10 mins. The reaction was initiated by the addition of 50 μL of 100 mM NADPH solution. The final incubation volume was 0.5 mL. The incubation mixture contains 100 μM test compound or acetaminophen (positive control), 1 mM glutathione, and 1 μM P450. After 60 mins incubation at 37° C., 1 mL of chilled acetonitrile was added to stop the reaction. After the addition of acetonitrile, the sample was vortexed and centrifuged. The supernatant was collected, concentrated in TurboVap under N2 (10 psi) at 30° C. for 35 mins, and transferred to a 96-well plate. The plate was capped and centrifuged. The supernatant was injected for LC-MS/MS analysis.
As a result, one skilled in the art would not expect compounds of Formula (I) to form the reactive metabolite NAPQI. A 129 neutral loss scan can be used to search or detect the formation of glutathione conjugates.

male ICR mice = assay: Formalin Paw Test; type: in vivo
Description: One test compound or the vehicle was administered to each mouse in each test group (8 mice per group). Non-fasted male ICR mice weighing 23±3 g were used. Compounds of Formula (I) were administered at a concentration of 3 mg/kg, 10 mg/kg, 15 mg/kg, 30 mg/kg, 60 mg/kg, 100 mg/kg, 200 mg/kg or 300 mg/kg; morphine was administered at a concentration of 5 mg/kg; and acetaminophen was administered at a concentration of 200 mg/kg. The control group received the vehicle (5% DMSO/40% PEG400/20% HPbCD/Saline). After 30 or 60 minutes, a 2% formalin solution (0.02 mL) was injected into one hind paw (sub-plantar) of each mouse. Responses were measured every 5 minutes after the formalin injection for 35 minutes.

[2] = 200 mg/kg, administered 30 minutes before formalin injection, acetaminophen 200 mg/kg, FIG. 5

| SMILES | formation of reactive metabolite NAPQI [1] | glutathione conjugate peak (129 neutral loss scan, LC-MS/MS) [1] | compound dose as percent of acetaminophen dose giving a lower pain response (male ICR mice; 60 mg/kg vs 200 mg/kg acetaminophen, tonic phase) | duration of decrease in pain response (phases) (male ICR mice; 200 mg/kg, administered 30 minutes before formalin injection, FIG. 4) | pain response compared to acetaminophen and morphine (male ICR mice; 200 mg/kg, administered 30 minutes before formalin injection, morphine 5 mg/kg, acetaminophen 200 mg/kg, FIG. 4) | efficacy compared to acetaminophen, acute phase (male ICR mice; all dosages ranging from 15 mg/kg to 200 mg/kg, FIG. 8) | pain response compared to acetaminophen (male ICR mice; dosage 200 mg/kg, FIG. 8) | dose needed to reduce the pain response to a level less than 200 mg/kg of acetaminophen (male ICR mice; tonic phase, FIG. 8) | amount less than the amount of acetaminophen needed to achieve the approximate same pain response (male ICR mice; 60 mg/kg vs 200 mg/kg acetaminophen) | efficacy compared to acetaminophen, after 25 minutes (male ICR mice; [2]) | pain response compared to acetaminophen, initial 25 minutes (male ICR mice; [2]) | dosage providing a pain response approximately equal to 200 mg/kg of acetaminophen (male ICR mice; dosages ranging from 3 mg/kg to 100 mg/kg, FIG. 9) | pain response compared to acetaminophen, entire testing period (male ICR mice; given 60 minutes prior to formalin injection, FIG. 10) |
| --- | --- | --- | --- | --- | --- | --- | --- | --- | --- | --- | --- | --- | --- |
| CC(=O)NC12CC(NC(C)=O)(C1)C2 [compound 10, N,N′-(bicyclo[1.1.1]pentane-1,3-diyl)diacetamide] | NAPQI was not formed | no glutathione conjugate peak was observed | about 33% | lasted through both the early/acute phase (0-5 minutes) and the late/tonic phase (20-35 minutes) | significantly decreased the pain response compared to both acetaminophen and morphine | equal to or significant increased efficacy compared to acetaminophen | approximately 50% | 60 mg/kg | – | – | – | – | – |
| CC(=O)NC12CC(C1)C2 [compound 4, N-(bicyclo[1.1.1]pentan-1-yl)acetamide] | NAPQI was not formed | no glutathione conjugate peak was observed | – | – | – | – | – | – | about 33% | increased efficacy compared to acetaminophen | reduces the pain response in a manner similar to acetaminophen for the initial 25 minutes | 60 mg/kg | reduces the pain response in a manner similar to acetaminophen throughout the entire testing period |
